Literature values as cited in patent publication US6491657B2, “Ultrasound enhancement of transdermal transport” (Sontra Medical, Inc., priority 1996, dated 2002).

Conditions: with ethanol as chemical enhancer

flux increase: 140 fold
SMILES: C[C@]12CC[C@@H]3c4ccc(O)cc4CC[C@H]3[C@@H]1CC[C@@H]2O [estradiol]
